{"source": "paper PMC9605374", "about": "(Marine Drugs, 2022)", "key": {"[1]": {"system": "various pathogenic bacteria", "set-up": "method as in PMID 26039736", "conditions": "cited from earlier work"}, "[2]": {"system": "LC3B-I/II in 22Rv1 cells", "experiment": "Western blotting, autophagy marker", "type": "cell-based, human", "experimental": "We examined several time points, specifically, 15 min, 2 h, and 48 h (Figure 6).\nFigure 6 Validation of kinome analysis data. 22Rv1 cells were treated with 1 µM or 10 µM of NB for the indicated time. The protein expression was analyzed by Western blotting using total protein load equal to 30 µg/slot. α-Tubulin was used as a loading control.\nThe Western blot assay was executed as previously described: 1 × 10^6 cells were seeded in Petri dishes (ø 6 cm, 5 mL/dish) and incubated overnight. On the next day, the cells were treated with the compounds in fresh culture media (5 mL/dish) for the indicated time. Next, cells were harvested with a cell scraper and lysed in lysis buffer including protease and phosphatase inhibitors cocktail (Roche, Mannheim, Germany). Cell debris were removed from the protein lysates via centrifugation. Afterwards, the cell-free protein mixtures were separated in gradient ready-made Mini-PROTEAN® TGX Stain-Free^TM gels (Bio-Rad, Hercules, CA, USA) using SDS-PAGE (sodium dodecylsulfate polyacrylamide gel electrophoresis). Then, the proteins were blotted onto ø 0.2 µm pore PVDF membrane. The membrane was blocked and consequently treated with primary and secondary antibodies for protein detection. The signals were detected using the ECL chemiluminescence system (Thermo Scientific, Rockford, IL, USA)."}, "[3]": {"system": "22Rv1 cells", "experiment": "Cell cycle progression and DNA fragmentation analysis (PI, flow cytometry)", "type": "cell-based, human", "conditions": "22Rv1, 48 h", "experimental": "(§1) Figure 4 Investigation of the proapoptotic activity of NB. Flow cytometry analysis of 22Rv1 cells after 48 h of treatment. (A) Cell cycle and DNA fragmentation analysis. Treated cells were stained with PI and analyzed using a flow cytometry technique. Sub-G1 population was assumed to be apoptotic cells containing fragmentated DNA. (B) Analysis of phosphatidylserine externalization. Treated cells were double-stained with annexin-V-FITC and PI and analyzed using the flow cytometry technique. Cells of the low left quadrant (annexin-V-FITC^−/PI^−) were considered as alive cells. The Cell Quest Pro v.5.2.1 software (BD Bioscience, San Jose, CA, USA) was used to analyze and quantify the FACS data. Cells treated for 48 h with 10 µM of anisomycin were used as a positive control. Number of replicates n = 3. Statistical significance: * p < 0.05 (ANOVA). […]\nDNA fragmentation and cell cycle progression of treated and untreated cells (negative control) were analyzed by flow cytometry as previously described. […]"}, "[4]": {"system": "LNCaP", "set-up": "method as in PMID 27355960", "conditions": "cited from earlier work"}, "[5]": {"molecular_target": "p-glycoprotein (p-gp, MDR1) in PC3-DR cells (Homo sapiens, UniProt P08183)", "sequence (P08183 whole entry)": "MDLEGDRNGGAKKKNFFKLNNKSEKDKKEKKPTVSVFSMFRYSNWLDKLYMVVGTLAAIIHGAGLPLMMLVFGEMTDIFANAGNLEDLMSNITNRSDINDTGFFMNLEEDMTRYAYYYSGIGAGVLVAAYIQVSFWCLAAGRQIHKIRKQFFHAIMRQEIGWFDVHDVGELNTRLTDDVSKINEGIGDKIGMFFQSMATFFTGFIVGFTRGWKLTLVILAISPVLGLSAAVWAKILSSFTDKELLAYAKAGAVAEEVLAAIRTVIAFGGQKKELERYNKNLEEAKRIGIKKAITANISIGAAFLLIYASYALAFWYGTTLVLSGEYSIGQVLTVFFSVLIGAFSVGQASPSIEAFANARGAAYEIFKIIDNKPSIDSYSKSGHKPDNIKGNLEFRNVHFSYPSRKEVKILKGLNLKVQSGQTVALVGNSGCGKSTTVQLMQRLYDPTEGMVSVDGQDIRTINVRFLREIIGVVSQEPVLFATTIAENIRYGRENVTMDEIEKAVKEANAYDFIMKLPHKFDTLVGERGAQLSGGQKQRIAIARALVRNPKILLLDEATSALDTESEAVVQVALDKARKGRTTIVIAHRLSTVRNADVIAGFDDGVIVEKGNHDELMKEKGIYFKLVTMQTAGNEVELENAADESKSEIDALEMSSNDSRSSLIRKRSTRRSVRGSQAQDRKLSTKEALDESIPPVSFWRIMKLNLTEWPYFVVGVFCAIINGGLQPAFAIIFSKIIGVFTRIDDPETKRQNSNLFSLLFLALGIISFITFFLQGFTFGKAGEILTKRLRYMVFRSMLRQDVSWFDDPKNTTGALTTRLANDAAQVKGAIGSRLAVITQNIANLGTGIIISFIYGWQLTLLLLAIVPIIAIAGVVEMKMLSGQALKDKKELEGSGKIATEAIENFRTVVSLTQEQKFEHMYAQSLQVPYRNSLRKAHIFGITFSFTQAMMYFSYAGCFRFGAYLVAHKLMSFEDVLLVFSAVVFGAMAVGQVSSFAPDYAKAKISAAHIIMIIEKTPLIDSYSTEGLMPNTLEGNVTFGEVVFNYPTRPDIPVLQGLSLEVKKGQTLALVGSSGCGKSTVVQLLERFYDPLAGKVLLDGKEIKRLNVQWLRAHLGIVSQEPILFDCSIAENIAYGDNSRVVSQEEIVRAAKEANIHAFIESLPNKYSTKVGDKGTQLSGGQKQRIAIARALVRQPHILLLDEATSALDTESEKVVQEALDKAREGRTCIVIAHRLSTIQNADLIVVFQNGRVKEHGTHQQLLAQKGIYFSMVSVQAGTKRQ", "experiment": "Calcein-AM exclusion assay, p-glycoprotein activity", "description": "To further understand the interactions of NB and p-gp, and the effect of NB on p-gp activity, we performed a calcein-AM-exclusion assay. Consequently, p-gp overexpressing PC3-DR cells were chosen as a test model. This assay utilizes calcein-AM (calcein acetoxymethyl ester), a nonfluorescent dye that enters cells through passive diffusion and exits cells through p-gp. Metabolic active cells contain cytosolic esterases that hydrolyze calcein-AM into its green-fluorescent form (calcein). The green fluorescence can be further measured. However, in p-gp overexpressing cells, calcein-AM is excreted out of the cell before it is metabolized. […] Application of p-gp inhibitors, such as tariquidar (TQD), leads to the accumulation of calcein-AM/calcein inside the cells and, therefore, to increased fluorescence. […] In our experiments, PC3-DR cells were exposed to NB for 30 min followed by incubation with calcein-AM.\n(A) Effect of NB on calcein accumulation (measures as green fluorescence) in PC3-DR cells. The effect was measures following 30 min incubation with the drug. P-gp inhibitor tariquidar (TQD, 50 nM) was used as a positive control. Number of replicates n = 3.\nThe experiment was performed as previously described [42]. […] The green fluorescence was measured with Infinite F200PRO reader (TECAN, Männedorf, Switzerland). […]"}, "[6]": {"system": "22Rv1 cells", "experiment": "Trypan blue exclusion assay", "type": "cell-based", "conditions": "Homo sapiens, 22Rv1, trypan blue exclusion", "experimental": "Figure 2 Trypan blue exclusion assay. 22Rv1 cells were treated for 48 h (A) or 168 h (B) with the indicated concentrations of NB. The cells were harvested, stained, and counted with an automatic Vi-CELL cell counter device. Number of replicates n = 3.\nThe trypan blue exclusion assay was used to monitor the effect of the drugs on cell viability regarding cellular membrane integrity and was performed as described before. In brief, cells (2 × 10^5 cells/well) were seeded in 6-well plates (1 mL/well) and incubated overnight. Next, the media was substituted with fresh media (1 mL/well) containing drugs at indicated concentrations. Cells were treated for 48 h, harvested by trypsination, and stained with trypan blue. The automatic Beckman Coulter Vi-CELL (Beckman Coulter, Krefeld, Germany) was used to count trypan blue-positive and -negative cells. Trypan blue-negative cells were postulated to have an intact cellular membrane (i.e., alive cells), whereas trypan blue-positive cells were assumed to have damaged cellular membrane (i.e., dead cells)."}, "[7]": {"system": "22Rv1 cells", "experiment": "Annexin-V-FITC/PI double staining, flow cytometry", "type": "cell-based, human", "experimental": "as §1\nExternalization of phosphatidylserine is a distinct marker of apoptotic cell death that can be detected by flow cytometry using annexin-V-FITC and propidium iodide (PI) double staining. […] Cells were harvested utilizing trypsin, stained with annexin-V-FITC and propidium iodide, and analyzed using FACS Calibur (BD Bioscience, San Jose, CA, USA)."}}}
{"smiles": "COc1ccc(C2SSC34CC5(O)C(Cl)C=CC(O)C5ON3C(=O)C2N(C)C4=O)c(O)c1OC", "note": "(centres unmarked) [NB, N-methylpretrichodermamide B]", "values": [{"measurement": "MIC", "setting": "[1]", "result": "8–32 µm/mL"}, {"measurement": "effect on autophagy (LC3B-I/II expression)", "setting": "[2]", "result": "no significant effect on autophagy"}, {"measurement": "DNA fragmentation (sub-G1 population)", "setting": "[3]", "result": "caused DNA fragmentation"}, {"measurement": "cell cycle arrest", "setting": "[3]", "result": "G1-phase arrest"}, {"measurement": "IC50", "setting": "[4]", "result": 1760, "unit": "nM"}, {"measurement": "calcein accumulation (green fluorescence), p-gp inhibition", "setting": "[5]; 30 min exposure, nanomolar concentrations, dose-dependent", "result": "significantly increased the green fluorescence"}, {"measurement": "concentration at which an inhibitory effect on p-gp activity was already detected", "setting": "[5]; calcein-AM, noncytotoxic concentration", "result": 312.5, "unit": "nM"}, {"measurement": "IC50", "setting": "[6]; 48 h", "result": "129 ± 62", "unit": "nM"}, {"measurement": "IC50", "setting": "[6]; 168 h", "result": "276 ± 58", "unit": "nM"}, {"measurement": "phosphatidylserine externalization", "setting": "[7]; 22Rv1, 48 h", "result": "caused DNA fragmentation and phosphatidylserine externalization"}, {"measurement": "effect of pretreatment with pan-caspase inhibitor zVAD on drug-induced cell death", "setting": "[7]; 22Rv1, zVAD 100 µM 1 h pretreatment, 48 h", "result": "could not significantly inhibit"}]}
